Reference: patent publication US20020026053A1, “Novel 3-(substituted) -2- indolinones compounds and use thereof as inhibitors of protein kinase activity” (priority 1997, published 2002)

Tested on: FLK-1 receptor
Assay: FLK-1 Assay (cellular/catalytic ELISA, VEGF-stimulated phosphotyrosine)
Type: cell-based
Design: concentration or dose not given beside the values
Outline: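 NIH3T3 C7#3 cells engineered to express Flk-1 were serum-starved overnight (0.1% FBS), then exposed to compound for 2 h at 37 °C (final dilution 1:200, 0.5% DMSO) before VEGF stimulation. Lysates captured on anti-FLK-1 antiserum plates; phosphotyrosine detected by UB40 antibody/POD-ABTS ELISA versus untreated controls.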

Structure (SMILES)	Flk Kinase % Inhibition (P.110)
Cc1c(Br)cc(Br)c2c1C(=Cc1cc(Cl)cc(Cl)c1O)C(=O)N2 [10734/H03]	4.6%
Cc1c(Br)cc(Br)c2c1C(=Cc1cc(Cl)ccc1O)C(=O)N2 [10734/H04]	−1.3%
